# Laboratory results as given in paper PMC7910394, “Design of PSMA ligands with modifications at the inhibitor part: an approach to reduce the salivary gland uptake of radiolabeled PSMA inhibitors?” (EJNMMI Radiopharmacy and Chemistry, 2021).
# Where two headings read alike, the source gives them in different places.
# Key:
# LNCaP cells = assay: Internalization study of 177Lu-labeled ligands in LNCaP cells, normalized to ([125I]I-BA)KuE; assay type: cell-based, human; conditions: 1 h, 37 °C, 1.0 nM 177Lu-compound, normalized to ([125I]I-BA)KuE
# Protocol: (§1) PSMA-positive LNCaP cells (300265; Cell Lines Service, Eppelheim, Germany) were cultivated in Dulbecco’s modified Eagle medium/Nutrition Mixture F-12 with GlutaMAX (1/1, DMEM-F12, Thermo Fisher Scientific, Darmstadt, Germany) supplemented with 10% fetal bovine serum (Merck KGaA, Darmstadt, Germany) and kept at 37 °C in a humidified 5% CO2 atmosphere. One day (24 ± 2 h) prior to all in vitro experiments, the cultivated LNCaP cells were harvested using a mixture of trypsin/ethylenediamine-tetraacetic acid (0.05%/0.02%) in PBS (Thermo Fisher Scientific, Darmstadt, Germany) and centrifuged at 1300 rpm (ca. 190×g) for 3 min at room temperature (Heraeus Megafuge 16, Thermo Fisher Scientific, Darmstadt, Germany). After centrifugation, the supernatant was disposed and the cell pellet was resuspended in culture medium. Cells were counted with a Neubauer hemocytometer (Paul Marienfeld GmbH & Co. KG, Lauda-Königshofen, Germany) and seeded in 24-well plates.
# (§2) Detailed information on affinity and internalization experiments is provided in the supporting information. […] IC50 values of (^natI-BA)KuE were determined on the same day for monitoring assay performance and to identify abnormal deviations in uptake and/or affinity. […] Data were corrected for non-specific binding and normalized to the specific internalization observed for the radioiodinated reference compound (n = 3).
# The culture medium was removed and the cells were washed with 500 µL of DMEM-F12 containing 5% BSA. Afterwards, 200 µL of DMEM-F12 (5% BSA) were added to each well and left to equilibrate at 37 °C for 15 min. 25 µL of DMEM-F12 (5% BSA) were added to each well, followed by the addition of 25 µL of the respective ^177Lu-labeled ligand (10.0 nM in DMEM-F12 (5% BSA)). For blocking PSMA-specific binding and uptake, 25 µL of 2-(phosphonomethyl)pentane-1,5-dioic acid (2-PMPA) (100 µM in DMEM (5% BSA)) instead of DMEM-F12 (5% BSA) were added prior to radiotracer addition. […] Each experiment (control and blockade) was performed in triplicate. […] Incubation was terminated by placing the plate on ice (4 °C, 1 min) and removal of the incubation medium. The cells were washed with 250 µL of ice-cold PBS and the wash medium was combined with the respective supernatant. This fraction represents the amount of free radioligand. 250 µL of ice-cold 2-PMPA (10 µM in PBS) were added and the cells were incubated for 10 min at 4 °C. Afterwards, the cells were rinsed again with 250 µL of ice-cold PBS and the wash medium was combined with the respective supernatant. This fraction represents the amount of cell surface-bound ligand. In the last step, the cells were lysed by addition of 250 µL of 1 M aqueous NaOH. After 20 min, the lysate of each well was transferred to the respective vial as well as 250 µL of 1 M NaOH used for rinsing the well. This fraction represents the amount of internalized radioligand. Quantification of the amount of free, cell surface-bound and internalized activity was performed in a γ-counter.
# PSMA = biological target: T1, PSMA (Homo sapiens, UniProt Q04609); assay: Competitive binding assay (IC50) on LNCaP cells with ([125I]I-BA)KuE as radioligand; conditions: ([125I]I-BA)KuE 0.2 nM, HBSS (1% BSA), 4 °C, 1 h
# T1 construct: host or cells: LNCaP human prostate cancer cells
# T1 sequence (Q04609 whole entry): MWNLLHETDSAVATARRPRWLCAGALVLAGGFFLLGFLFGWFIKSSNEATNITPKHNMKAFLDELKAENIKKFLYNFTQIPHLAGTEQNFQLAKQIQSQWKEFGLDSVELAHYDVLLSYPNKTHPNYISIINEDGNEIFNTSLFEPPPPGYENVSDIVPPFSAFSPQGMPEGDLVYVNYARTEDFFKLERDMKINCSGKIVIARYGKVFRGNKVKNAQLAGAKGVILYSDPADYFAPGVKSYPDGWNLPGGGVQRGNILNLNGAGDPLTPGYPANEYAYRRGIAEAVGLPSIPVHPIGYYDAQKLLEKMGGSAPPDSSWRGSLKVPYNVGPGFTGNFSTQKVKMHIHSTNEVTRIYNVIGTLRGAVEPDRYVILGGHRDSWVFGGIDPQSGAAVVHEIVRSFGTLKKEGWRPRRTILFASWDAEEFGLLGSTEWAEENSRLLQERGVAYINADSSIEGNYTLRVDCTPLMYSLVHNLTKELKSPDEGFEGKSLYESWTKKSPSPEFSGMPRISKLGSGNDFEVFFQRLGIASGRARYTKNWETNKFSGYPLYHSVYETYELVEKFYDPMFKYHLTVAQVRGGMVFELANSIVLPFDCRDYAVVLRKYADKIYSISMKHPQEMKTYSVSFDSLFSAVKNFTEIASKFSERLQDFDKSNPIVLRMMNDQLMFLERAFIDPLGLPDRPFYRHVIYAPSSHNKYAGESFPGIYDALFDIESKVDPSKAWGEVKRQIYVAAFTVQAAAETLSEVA
# Protocol: as §1, §2
# The culture medium was removed and the cells were washed with 500 µL of Hank’s balanced salt solution (HBSS) (Merck KGaA, Darmstadt, Germany), containing 1% bovine serum albumin (BSA) (Merck KGaA, Darmstadt, Germany). Afterwards, 200 µL of HBSS (1% BSA) were added to each well and equilibrated on ice (4 °C) for 15 min. […] Experiments were carried out in triplicates for each concentration. The final concentrations of unlabeled ligand ranged from 10^-11 - 10^-5 M and the final radioligand concentration was 0.2 nM in all binding assays. The cells were incubated for one hour at 4 °C. Incubation was terminated by removal of the incubation medium. The cells were washed with 250 µL of HBSS (1% BSA) and the wash medium was combined with the respective supernatant. This fraction represents the amount of free radioligand. The cells were lysed by addition of 250 µL of 1 M aqueous NaOH. The lysate of each well was transferred to the respective vial as well as 250 µL of 1 M NaOH used for rinsing the well. Quantification of the amount of free and bound activity was performed in a γ-counter. The corresponding IC50 values were calculated using the GraphPad PRISM7 software.
# [1] = tested on: LNCaP tumor xenograft-bearing CB17-SCID mice; assay type: in vivo, mouse
# Protocol: All animal experiments were conducted in accordance with general animal welfare regulations in Germany (German animal protection act, as amended on 18.05.2018, Art. 141 G v. 29.3.2017 I 626, approval no. 55.2–1-54-2532-71-13) and the institutional guidelines for the care and use of animals. To establish tumor xenografts, LNCaP cells (approx. 10^7 cells) were suspended in 200 μL of a 1/1 mixture (v/v) of DMEM F-12 and Matrigel (BD Biosciences, Heidelberg, Germany) and inoculated subcutaneously onto the right shoulder of 6–8 weeks old CB17-SCID mice (Charles River Laboratories, Sulzfeld, Germany). Mice were used for experiments when tumor size reached 5–10 mm in diameter (3–6 weeks after inoculation).
# (§3) Approximately 2–10 MBq (0.20 nmol) of the ^177Lu-labeled PSMA inhibitors were injected into the tail vein of LNCaP tumor xenograft-bearing male CB17-SCID mice (n = 3 to 5). They were sacrificed by CO2 asphyxiation and cervical dislocation either 1 h or 24 h post injection (p.i.) (n = 3 for [^177Lu]Lu-5, -6 & -7 (proinhibitor compounds I-III), n = 4 for [^177Lu]Lu-10 (alkyne), n = 5 for [^177Lu]Lu-3 (carbamate I) and n = 5 for [^177Lu]Lu-11 (tetrazole)). Selected organs were removed, weighed and organ activities measured in a γ-counter.
# as §3, with “2 - 10” for “2–10”, “(alkyne) and” for “(alkyne),”
structure (smiles),measurement,setting,value
C#CC[C@H](NC(=O)N[C@@H](CCC(=O)N[C@H](CCCNC(=O)CCC(=O)NCCCC[C@@H](NC(=O)[C@@H](CNC(=O)c1ccc([Si](F)(C(C)(C)C)C(C)(C)C)cc1)NC(=O)CN1CCN(CC(=O)[O-])CCN(CC(=O)[O-])CCN(CC(=O)[O-])CC1)C(=O)O)C(=O)O)C(=O)O)C(=O)O.[Lu+3] [^natLu/[^177Lu]Lu-10],%Internalization compared to the reference,LNCaP cells,1 h: 1.2 ± 0.4%
same,%Internalization compared to the reference,LNCaP cells; listed as [^177Lu]Lu-10,1.2 ± 0.4%
same,IC50,PSMA,138 ± 53 nM
same,Biodistribution Adrenals,[1]; 24 h p.i.,0.02 ± 0.02 % ID/g
same,Biodistribution Blood,[1]; 24 h p.i.,0.01 ± 0.01 % ID/g
same,Biodistribution Bone,[1]; 24 h p.i.,0.03 ± 0.01 % ID/g
same,Biodistribution Heart,[1]; 24 h p.i.,0.01 ± 0.00 % ID/g
same,Biodistribution Intestine,[1]; 24 h p.i.,0.32 ± 0.29 % ID/g
same,Biodistribution Kidneys,[1]; 24 h p.i.,1.29 ± 0.28 % ID/g
same,Biodistribution Liver,[1]; 24 h p.i.,0.09 ± 0.04 % ID/g
same,Biodistribution Lung,[1]; 24 h p.i.,0.03 ± 0.03 % ID/g
same,Biodistribution Pancreas,[1]; 24 h p.i.,0.01 ± 0.01 % ID/g
same,Biodistribution Parotid gland,[1]; 24 h p.i.,0.02 ± 0.00 % ID/g
same,Biodistribution Spleen,[1]; 24 h p.i.,0.04 ± 0.00 % ID/g
same,Biodistribution Stomach,[1]; 24 h p.i.,0.12 ± 0.11 % ID/g
same,Biodistribution Submandibular gland,[1]; 24 h p.i.,0.02 ± 0.00 % ID/g
same,Biodistribution Tumor,[1]; 24 h p.i.,0.10 ± 0.03 % ID/g
same,Ratio Tumor-to-blood,[1]; 24 h p.i.,26.8 ± 16.9
same,Ratio Tumor-to-kidney,[1]; 24 h p.i.,0.08 ± 0.01
same,Ratio Tumor-to-liver,[1]; 24 h p.i.,1.46 ± 0.88
same,Ratio Tumor-to-muscle,[1]; 24 h p.i.,27.7 ±10.9
same,Ratio Tumor-to-parotid gland,[1]; 24 h p.i.,6.38 ± 3.06
same,Ratio Tumor-to-submandibular gland,[1]; 24 h p.i.,6.11 ± 1.78
same,factor by which tumor-to-submandibular gland and tumor-to-parotid gland ratios are lower than for [177Lu]Lu-1,[1]; 24 h p.i.,45
CC(C)(C)[Si](F)(c1ccc(C(=O)NC[C@@H](NC(=O)CN2CCN(CC(=O)[O-])CCN(CC(=O)[O-])CCN(CC(=O)[O-])CC2)C(=O)N[C@H](CCCCNC(=O)CCC(=O)NCCC[C@@H](NC(=O)CC[C@H](NC(=O)O[C@@H](CCC(=O)O)C(=O)O)C(=O)O)C(=O)O)C(=O)O)cc1)C(C)(C)C.[Lu+3] [^natLu/[^177Lu]Lu-3],%Internalization compared to the reference,LNCaP cells,1 h: 67.8 ± 0.5%
same,IC50,PSMA,7.1 ± 0.7 nM
same,Biodistribution Adrenals,[1]; 1 h p.i.,1.46 ± 0.70 % ID/g
same,Biodistribution Blood,[1]; 1 h p.i.,0.97 ± 0.18 % ID/g
same,Biodistribution Bone,[1]; 1 h p.i.,0.18 ± 0.02 % ID/g
same,Biodistribution Heart,[1]; 1 h p.i.,0.36 ± 0.04 % ID/g
same,Biodistribution Intestine,[1]; 1 h p.i.,0.36 ± 0.17 % ID/g
same,Biodistribution Kidneys,[1]; 1 h p.i.,61.8 ± 25.9 % ID/g
same,Biodistribution Liver,[1]; 1 h p.i.,0.87 ± 0.28 % ID/g
same,Biodistribution Lung,[1]; 1 h p.i.,2.88 ± 2.96 % ID/g
same,Biodistribution Muscle,[1]; 1 h p.i.,0.13 ± 0.04 % ID/g
same,Biodistribution Pancreas,[1]; 1 h p.i.,0.25 ± 0.06 % ID/g
same,Biodistribution Parotid gland,[1]; 1 h p.i.,0.62 ± 0.20 % ID/g
same,Biodistribution Spleen,[1]; 1 h p.i.,2.51 ± 0.95 % ID/g
same,Biodistribution Stomach,[1]; 1 h p.i.,0.30 ± 0.09 % ID/g
same,Biodistribution Submandibular gland,[1]; 1 h p.i.,0.37 ± 0.08 % ID/g
same,Biodistribution Tumor,[1]; 1 h p.i.,5.31 ± 0.94 % ID/g
same,Ratio Tumor-to-blood,[1]; 1 h p.i.,5.57 ± 1.18
same,Ratio Tumor-to-kidney,[1]; 1 h p.i.,0.09 ± 0.03
same,Ratio Tumor-to-liver,[1]; 1 h p.i.,6.61 ± 2.19
same,Ratio Tumor-to-muscle,[1]; 1 h p.i.,44.1 ± 9.0
same,Ratio Tumor-to-parotid gland,[1]; 1 h p.i.,9.09 ± 3.13
same,Ratio Tumor-to-submandibular gland,[1]; 1 h p.i.,14.7 ± 3.5
same,Biodistribution Adrenals,[1]; 24 h p.i.,0.04 ± 0.01 % ID/g
same,Biodistribution Bone,[1]; 24 h p.i.,0.02 ± 0.01 % ID/g
same,Biodistribution Heart,[1]; 24 h p.i.,0.02 ± 0.01 % ID/g
same,Biodistribution Intestine,[1]; 24 h p.i.,0.12 ± 0.06 % ID/g
same,Biodistribution Kidneys,[1]; 24 h p.i.,0.31 ± 0.05 % ID/g
same,Biodistribution Liver,[1]; 24 h p.i.,0.13 ± 0.05 % ID/g
same,Biodistribution Lung,[1]; 24 h p.i.,0.03 ± 0.01 % ID/g
same,Biodistribution Muscle,[1]; 24 h p.i.,0.01 ± 0.01 % ID/g
same,Biodistribution Pancreas,[1]; 24 h p.i.,0.02 ± 0.01 % ID/g
same,Biodistribution Parotid gland,[1]; 24 h p.i.,0.04 ± 0.02 % ID/g
same,Biodistribution Spleen,[1]; 24 h p.i.,0.09 ± 0.01 % ID/g
same,Biodistribution Stomach,[1]; 24 h p.i.,0.06 ± 0.04 % ID/g
same,Biodistribution Submandibular gland,[1]; 24 h p.i.,0.03 ± 0.01 % ID/g
same,Biodistribution Tumor,[1]; 24 h p.i.,1.20 ± 0.55 % ID/g
same,Ratio Tumor-to-blood,[1]; 24 h p.i.,947 ± 652
same,Ratio Tumor-to-kidney,[1]; 24 h p.i.,3.80 ± 1.36
same,Ratio Tumor-to-liver,[1]; 24 h p.i.,8.94 ± 2.94
same,Ratio Tumor-to-muscle,[1]; 24 h p.i.,127 ± 92
same,Ratio Tumor-to-parotid gland,[1]; 24 h p.i.,31.8 ± 9.3
same,Ratio Tumor-to-submandibular gland,[1]; 24 h p.i.,34.5 ± 9.2
same,factor by which tumor-to-submandibular gland and tumor-to-parotid gland ratios are lower than for [177Lu]Lu-1,[1]; 24 h p.i.,8
CC(C)(C)[Si](F)(c1ccc(C(=O)NC[C@@H](NC(=O)CN2CCN(CC(=O)[O-])CCN(CC(=O)[O-])CCN(CC(=O)[O-])CC2)C(=O)N[C@H](CCCCNC(=O)CCC(=O)NCCC[C@@H](NC(=O)CC[C@H](NC(=O)N[C@@H](Cc2ccco2)C(=O)O)C(=O)O)C(=O)O)C(=O)O)cc1)C(C)(C)C.[Lu+3] [^natLu-9],IC50,PSMA,> 440 nM
CCCCC[C@H](NC(=O)N[C@@H](CCC(=O)N[C@H](CCCNC(=O)CCC(=O)NCCCC[C@@H](NC(=O)[C@@H](CNC(=O)c1ccc([Si](F)(C(C)(C)C)C(C)(C)C)cc1)NC(=O)CN1CCN(CC(=O)[O-])CCN(CC(=O)[O-])CCN(CC(=O)[O-])CC1)C(=O)O)C(=O)O)C(=O)O)C(=O)O.[Lu+3] [^natLu-8],IC50,PSMA,> 2000 nM
